Experimental data: patent publication US20170066759A1, “AROMATIC 5-MEMBERED HETEROCYCLIC DERIVATIVE HAVING TRPV4-INHIBITING ACTIVITY” (Shionogi & Co., Ltd., priority 2012, published 2017)
Like-named read-outs stand apart in the source and are kept apart here.

Target: T1, human TRPV4 (hTRPV4/CHO cells) (Homo sapiens, UniProt Q9HBA0)
T1 construct: expressed in transfected cells; host or cells: CHO-K1
Assay: Test Example 1: TRPV4 inhibitory activity (IC50 value), 4α-PDD stimulation, Fluo4 calcium fluorescence (FLIPR TETRA)
Assay type: cell-based

[1] = Test Example 1, 4α-PDD stimulation, read-out: Test 1 IC50

T1 sequence (Q9HBA0 whole entry): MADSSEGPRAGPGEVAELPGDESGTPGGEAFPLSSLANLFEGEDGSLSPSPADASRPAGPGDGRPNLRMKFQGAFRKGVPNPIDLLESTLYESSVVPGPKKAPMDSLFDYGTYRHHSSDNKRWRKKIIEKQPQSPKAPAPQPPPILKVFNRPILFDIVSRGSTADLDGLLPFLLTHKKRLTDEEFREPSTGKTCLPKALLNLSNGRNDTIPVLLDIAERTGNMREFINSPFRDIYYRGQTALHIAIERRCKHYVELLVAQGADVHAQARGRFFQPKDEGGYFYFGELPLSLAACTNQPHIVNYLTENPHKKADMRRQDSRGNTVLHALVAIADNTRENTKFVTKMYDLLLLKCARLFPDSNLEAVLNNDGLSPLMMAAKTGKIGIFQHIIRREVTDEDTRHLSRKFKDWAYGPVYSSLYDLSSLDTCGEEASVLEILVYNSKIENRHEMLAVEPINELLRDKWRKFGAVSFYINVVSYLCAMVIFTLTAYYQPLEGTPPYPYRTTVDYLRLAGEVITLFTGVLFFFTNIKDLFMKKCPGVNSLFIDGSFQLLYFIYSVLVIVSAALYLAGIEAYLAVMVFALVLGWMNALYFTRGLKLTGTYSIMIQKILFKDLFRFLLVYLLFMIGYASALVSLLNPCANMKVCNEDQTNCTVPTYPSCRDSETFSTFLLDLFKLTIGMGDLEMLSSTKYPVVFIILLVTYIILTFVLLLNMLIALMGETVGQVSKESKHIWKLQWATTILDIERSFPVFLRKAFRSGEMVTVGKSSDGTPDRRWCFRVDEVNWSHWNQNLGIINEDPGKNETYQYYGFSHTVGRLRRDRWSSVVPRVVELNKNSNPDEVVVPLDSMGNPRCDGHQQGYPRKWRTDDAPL

Compound	IC50 [1]	IC50 (1 μmol/L 4α-PDD, Fluo4-AM, read-out: TRPV4 inhibitory activity (IC50 value))
Cc1nc(CO)sc1-c1csc(NC(=O)C2CC(OCc3ccncc3)C2)n1 (centres unmarked) [Compound I-240]	1000 to 8000 nM	
Cc1nc(CO)sc1-c1csc(NC(=O)CN2Cc3ccccc3C2)n1 [Compound I-241]	100 to 1000 nM	
Cc1nc(C)c(-c2csc(NC(=O)[C@@H]3C[C@@H](Oc4ccccc4)CN3C(=O)OC(C)(C)C)n2)s1 [Compound I-242]	< 100 nM	
Cc1nc(C)c(-c2csc(NC(=O)[C@H]3C[C@@H](c4ccccc4)CN3C(=O)OC(C)(C)C)n2)s1 [Compound I-243]	100 to 1000 nM	
Cc1nc(C)c(-c2csc(NC(=O)[C@@H]3C[C@@H](Oc4ccccc4)CN3)n2)s1 [Compound I-244]	100 to 1000 nM	
Cc1nc(C)c(-c2csc(NC(=O)[C@H]3C[C@H](c4ccccc4)CN3C(=O)OC(C)(C)C)n2)s1 [Compound I-245]	< 100 nM	
Cc1nc(C)c(-c2csc(NC(=O)[C@@H]3C[C@H](c4ccccc4)CN3C(=O)OC(C)(C)C)n2)s1 [Compound I-246]	< 100 nM	
Cc1nc(CO)sc1-c1csc(NC(=O)C2CC(OCc3cccnc3)C2)n1 (centres unmarked) [Compound I-247]	1000 to 8000 nM	
O=C(Nc1nc(-c2sc(CO)nc2CO)cs1)[C@H]1C[C@H](F)C1 [Compound I-248]	1000 to 8000 nM	
Cc1nc(C)c(-c2csc(NC(=O)[C@@H]3CCCN3C(=O)OC(C)(C)C)n2)s1 [Compound I-249]	100 to 1000 nM	
Cc1nc(C)c(-c2csc(NC(=O)[C@@H]3C[C@@H](Oc4ccccc4)CN3C(=O)C(F)(F)F)n2)s1 [Compound I-250]	< 100 nM	
CC(=O)N1C[C@H](Oc2ccccc2)C[C@H]1C(=O)Nc1nc(-c2sc(C)nc2C)cs1 [Compound I-251]	1000 to 8000 nM	
Cc1nc(C)c(-c2csc(NC(=O)[C@@H]3C[C@@H](Oc4ccccc4)CN3C(=O)CO)n2)s1 [Compound I-252]	1000 to 8000 nM	
O=C(Nc1nc(-c2sc(CO)nc2CO)cs1)C1CCC(C(F)(F)F)CC1 (centres unmarked) [Compound I-253]	100 to 1000 nM	
O=C(Nc1nc(-c2sc(CO)nc2CO)cs1)C1CCC(C(F)(F)F)CC1 (centres unmarked) [Compound I-254]	< 100 nM	
NC(=O)c1nc(CO)c(-c2csc(NC(=O)Cc3ccc(S(=O)(=O)C(F)(F)F)cc3)n2)s1 [Compound I-255]	1000 to 8000 nM	
Cc1nc(C)c(-c2csc(NC(=O)C3CN(C(=O)c4ccccc4)C3)n2)s1 [Compound I-256]	1000 to 8000 nM	
Cc1nc(C)c(-c2csc(NC(=O)C3CN(C(=O)c4ccc(C(F)(F)F)cc4)C3)n2)s1 [Compound I-257]	100 to 1000 nM	
Cc1nc(C)c(-c2csc(NC(=O)C3CN(Cc4ccc(C(F)(F)F)cc4)C3)n2)s1 [Compound I-258]	< 100 nM	
Cc1nc(C)c(-c2csc(NC(=O)C3CN(c4ccc(C(F)(F)F)cn4)C3)n2)s1 [Compound I-259]	< 100 nM	
Cc1nc(C)c(-c2csc(NC(=O)C3CN(Cc4ccccc4C(F)(F)F)C3)n2)s1 [Compound I-260]	< 100 nM	
COC(=O)c1ccc(C(=O)N2CC(C(=O)Nc3nc(-c4sc(C)nc4C)cs3)C2)cc1 [Compound I-261]	100 to 1000 nM	
Cc1nc(C)c(-c2csc(NC(=O)C3CN(Cc4cccc(C(F)(F)F)c4)C3)n2)s1 [Compound I-262]	< 100 nM	
COC(=O)c1ccc(CN2CC(C(=O)Nc3nc(-c4sc(C)nc4C)cs3)C2)cc1 [Compound I-263]	100 to 1000 nM	
Cc1nc(C)c(-c2csc(NC(=O)C3CN(S(=O)(=O)c4ccc(C(F)(F)F)cc4)C3)n2)s1 [Compound I-264]	< 100 nM	

Compound	IC50 [1]	IC50 (1 μmol/L 4α-PDD, Fluo4-AM, read-out: TRPV4 inhibitory activity (IC50 value))
Cc1nc(C)c(-c2csc(NC(=O)[C@H](Cc3ccccc3)NC(=O)OC(C)(C)C)n2)s1 [Compound I-265]	100 to 1000 nM	
Cc1nc(C)c(-c2csc(NC(=O)[C@H](CCc3ccccc3)NC(=O)OC(C)(C)C)n2)s1 [Compound I-266]	100 to 1000 nM	
Cc1nc(CO)sc1-c1csc(NC(=O)C2CC(=O)C2)n1 [Compound I-267]	1000 to 8000 nM	
CO[C@H]1C[C@H](C(=O)Nc2nc(-c3sc(C)nc3C)cs2)C1 [Compound I-268]	100 to 1000 nM	
CO[C@H]1C[C@@H](C(=O)Nc2nc(-c3sc(C)nc3C)cs2)C1 [Compound I-269]	1000 to 8000 nM	
CCOC(=O)c1nc(C)c(-c2csc(NC(=O)C3Oc4cc(Cl)c(Cl)cc4O3)n2)s1 [Compound I-270]	100 to 1000 nM	
Cc1nc(C)c(-c2csc(NC(=O)[C@@H]3C[C@H](c4ccccc4)CN3C(=O)C(F)(F)F)n2)s1 [Compound I-271]	< 100 nM	
Cc1nc(C)c(-c2csc(NC(=O)[C@@H]3C[C@@H](N4CCC(c5ccccc5)CC4)CN3C(=O)OC(C)(C)C)n2)s1 [Compound I-272]	< 100 nM	
Cc1nc(CO)sc1-c1csc(NC(=O)C2Oc3cc(Cl)c(Cl)cc3O2)n1 [Compound I-273]	< 100 nM	
Cc1nc(C)c(-c2csc(NC(=O)[C@@H]3C[C@@H](N4CCC(c5ccccc5)CC4)CN3)n2)s1 [Compound I-274]	1000 to 8000 nM	
Cc1nc(C)c(-c2csc(NC(=O)[C@@H]3C[C@@H](N4CCCCC4)CN3C(=O)OC(C)(C)C)n2)s1 [Compound I-275]	1000 to 8000 nM	
Cc1nc(C)c(-c2csc(NC(=O)[C@@H]3C[C@@H](N4CCC(c5ccccc5)CC4)CN3C(=O)C(F)(F)F)n2)s1 [Compound I-276]	< 100 nM	
Cc1nc(CO)sc1-c1csc(NC(=O)[C@@H]2C[C@@H](c3ccccc3)CN2C(=O)OC(C)(C)C)n1 [Compound I-277]	< 100 nM	
Cc1nc(C)c(-c2csc(NC(=O)C3CN(c4ncc(C(F)(F)F)cn4)C3)n2)s1 [Compound I-278]	< 100 nM	
CCOC(=O)C(C)(C)N1CC(C(=O)Nc2nc(-c3sc(C)nc3C)cs2)C1 [Compound I-279]	1000 to 8000 nM	
Cc1nc(C)c(-c2csc(NC(=O)C3CN(c4ccccc4C(F)(F)F)C3)n2)s1 [Compound I-280]	< 100 nM	
Cc1nc(C)c(-c2csc(NC(=O)C3CN(CC(F)(F)F)C3)n2)s1 [Compound I-281]	100 to 1000 nM	
Cc1nc(C)c(-c2csc(NC(=O)C3CN(Cc4ccc(C(F)(F)F)nc4)C3)n2)s1 [Compound I-282]	100 to 1000 nM	
COc1ccc(CN2CC(C(=O)Nc3nc(-c4sc(C)nc4C)cs3)C2)cn1 [Compound I-283]	1000 to 8000 nM	
Cc1nc(C)c(-c2csc(NC(=O)C3CN(c4ccc(C(F)(F)F)nn4)C3)n2)s1 [Compound I-284]	100 to 1000 nM	
Cc1nc(C)c(-c2csc(NC(=O)C3CN(c4ccc(-c5ccccc5)nn4)C3)n2)s1 [Compound I-285]	100 to 1000 nM	
Cc1nc(C)c(-c2csc(NC(=O)C3CN(c4ccc(C(F)(F)F)nc4)C3)n2)s1 [Compound I-286]	< 100 nM	
COC(=O)N1C[C@H](c2ccccc2)C[C@H]1C(=O)Nc1nc(-c2sc(C)nc2C)cs1 [Compound I-288]	< 100 nM	
CC(=O)N1C[C@H](c2ccccc2)C[C@H]1C(=O)Nc1nc(-c2sc(C)nc2C)cs1 [Compound I-289]	100 to 1000 nM	
Cc1nc(CO)sc1-c1csc(NC(=O)[C@@H]2C[C@@H](c3ccccc3)CN2C(=O)C(F)(F)F)n1 [Compound I-290]	< 100 nM	

Compound	IC50 [1]	IC50 (1 μmol/L 4α-PDD, Fluo4-AM, read-out: TRPV4 inhibitory activity (IC50 value))
Cc1nc(C)c(-c2csc(NC(=O)[C@@H]3C[C@@H](c4ccccc4)CN3C(=O)C(C)C)n2)s1 [Compound I-291]	100 to 1000 nM	
Cc1nc(C)c(-c2csc(NC(=O)[C@@H]3C[C@@H](c4ccccc4)CN3CC(F)(F)F)n2)s1 [Compound I-292]	< 100 nM	
Cc1nc(C)c(-c2csc(NC(=O)[C@@H]3C[C@H](Oc4ccc(Cl)cc4)CN3C(=O)OC(C)(C)C)n2)s1 [Compound I-293]	< 100 nM	
Cc1nc(C)c(-c2csc(NC(=O)[C@@H]3C[C@@H](c4ccccc4)CN3C=[N+](C)C)n2)s1 [Compound I-294]	1000 to 8000 nM	
Cc1nc(C(C)O)sc1-c1csc(NC(=O)C2CCN(c3ccccc3)C2)n1 (centres unmarked) [Compound I-295]	100 to 1000 nM	
Cc1nc(C)c(-c2csc(NC(=O)c3cccc(-c4ccccc4)n3)n2)s1 [Compound I-296]	1000 to 8000 nM	
Cc1nc(CO)sc1-c1csc(NC(=O)C2CN(c3ccc(C(F)(F)F)cn3)C2)n1 [Compound I-297]	< 100 nM	22 nM
CCNC(=O)N1C[C@H](c2ccccc2)C[C@H]1C(=O)Nc1nc(-c2sc(C)nc2C)cs1 [Compound I-300]	1000 to 8000 nM	
Cc1nc(C)c(-c2csc(NC(=O)[C@@H]3C[C@@H](c4ccccc4)CN3S(=O)(=O)C(C)C)n2)s1 [Compound I-301]	< 100 nM	
O=C(Nc1nc(-c2sc(CO)nc2CO)cs1)C1CN(c2ccc(C(F)(F)F)cc2)C1 [Compound I-302]	< 100 nM	
O=C(Nc1nc(-c2sc(CO)nc2CO)cs1)C1CN(c2ccc(C(F)(F)F)cn2)C1 [Compound I-303]	100 to 1000 nM	
Cc1nc(CO)sc1-c1csc(NC(=O)[C@H]2C[C@@H](N(C)CC(F)(F)F)C2)n1 [Compound I-304]	100 to 1000 nM	
Cc1nc(CO)sc1-c1csc(NC(=O)C2CN(S(=O)(=O)c3ccccc3C(F)(F)F)C2)n1 [Compound I-305]	100 to 1000 nM	
Cc1nc(CO)sc1-c1csc(NC(=O)C2CN(S(=O)(=O)c3ccc(C(F)(F)F)cc3)C2)n1 [Compound I-306]	< 100 nM	
Cc1nc(CO)sc1-c1csc(NC(=O)C2CN(c3ncc(C(F)(F)F)cn3)C2)n1 [Compound I-307]	< 100 nM	
Cc1nc(CO)sc1-c1csc(NC(=O)C2CN(C(=O)OCC(F)(F)F)C2)n1 [Compound I-308]	100 to 1000 nM	
Cc1nc(CO)sc1-c1csc(NC(=O)C2CN(c3ccc(C(F)(F)F)nc3)C2)n1 [Compound I-309]	< 100 nM	
Cc1nc(CO)sc1-c1csc(NC(=O)C2CN(c3cccnc3C(F)(F)F)C2)n1 [Compound I-310]	< 100 nM	
Cc1nc(CO)sc1-c1csc(NC(=O)C2CN(c3cccnc3Br)C2)n1 [Compound I-311]	< 100 nM	
Cc1nc(CO)sc1-c1csc(NC(=O)[C@@H]2C[C@@H](c3ccccc3)CN2C(=O)C(C)C)n1 [Compound I-312]	100 to 1000 nM	
CCOC(=O)N1C[C@H](c2ccccc2)C[C@H]1C(=O)Nc1nc(-c2sc(CO)nc2C)cs1 [Compound I-313]	< 100 nM	
Cc1nc(CO)sc1-c1csc(NC(=O)[C@@H]2C[C@@H](c3ccccc3)CN2C(=O)OCC(F)(F)F)n1 [Compound I-314]	< 100 nM	
Cc1nc(CO)sc1-c1csc(NC(=O)[C@@H]2C[C@@H](c3ccccc3)CN2C(=O)OC(C)C)n1 [Compound I-315]	< 100 nM	
